From patent US8273686B2, “Method for combating phytopathogenic fungi” (priority 2006, dated 2012)

How the values were obtained:
Assay type in all cases: cell-based
[1] = system: Phaeomoniella chlamydospora; assay: Microtitre test, growth inhibition (optical density 405 nm); details: tested at 125, 31, 8, 2, 0.5 and 0.125 ppm a.i.; 7 and 14 days' incubation at 23° C.
Method: (§1) The products were provided as technical quality active ingredient. Stock solutions of the active ingredients were prepared in DMSO at a concentration of 10 000 ppm a.i. All products were tested at 125, 31, 8, 2, 0.5 and 0.125 ppm a.i.; the DMSO concentration was the same in all dilutions.
(§2) Spore suspensions of the test fungi were prepared in a yeast extract, Bacto peptone and glycerol liquid medium.
(§3) Equal volumes of test compound and spore suspension were added, in triplicate, to the wells of 96-well microtitre plates. The optical densities of the wells were measured with the aid of a photometer at 405 nm immediately after preparation.
(§4) Incubation of the plates followed at 23° C. Further optical density measurements were made after 7 and 14 days' incubation. Growth in the treated wells was compared with the growth in the control (=water) wells.

[2] = system: Phaeoacremonium aleophilum; assay: as above; details: tested at 125, 31, 8, 2, 0.5 and 0.125 ppm a.i.; 7 and 14 days' incubation at 23° C.
Method: as §1, §2, §3, §4

[3] = system: Fomitiporella vitis; assay: Mycelium growth inhibition on PDA Petri dishes; details: mean of 3 repetitions
Method: (§5) Test pathogens were Phaeoacremonium sp., Phaemoniella chlamydospora and Fomitiporella vitis (pathogens associated with the Esca disease) as well as Cylindrocarpon destructans and Botryosphaeria sp. (pathogens frequently isolated from vine wood with Esca symptoms).
(§6) The concentrations of active ingredient added to the culture medium were determined previously by diffusion of the product in agar inoculated for the corresponding species.
(§7) Subsequently the diameters of the pathogen growths (mm) were determined visually until the […] (pathogen in PDA medium without fungicide) fully colonised the Petri dishes.
(§8) Levels of inhibition of mycelium growth for different fungal species in relation to fungicide concentration. The results are expressed as percentages and represent the mean of 3 repetitions

[4] = system: Botryosphaeria sp.; assay: Mycelium growth inhibition on PDA Petri dishes; details: mean of 3 repetitions
Method: as §5, §6, §7, §8

[5] = system: Phaeomoniella chlamydospora; assay: Mycelium growth inhibition on PDA Petri dishes; details: mean of 3 repetitions
Method: as §5, §6, §7, §8

[6] = system: Cylindrocarpon destructans; assay: Mycelium growth inhibition on PDA Petri dishes; details: mean of 3 repetitions
Method: as §5, §6, §7, §8

[7] = system: Phaeoacremonium sp.; assay: Mycelium growth inhibition on PDA Petri dishes; details: mean of 3 repetitions
Method: as §5, §6, §7, §8

[8] = system: Ganoderma sp.; assay: Mycelium growth inhibition on PDA Petri dishes; details: mean of 3 repetitions
Method: as §6, §7, §8

[9] = 0.1 ppm active ingredient (as Comet)
[10] = 1 ppm active ingredient (as Comet)
[11] = 10 ppm active ingredient (as Comet)
[12] = 100 ppm active ingredient (as Comet)
[13] = 1000 ppm active ingredient (as Comet)

COC(=O)N(OC)c1ccccc1COc1ccn(-c2ccc(Cl)cc2)n1 [pyraclostrobin]
inhibition of the growth of Phaeomoniella chlamydospora [1]: strong to very strong | inhibition of the growth of Phaeoacremonium aleophilum [2]: strong to very strong | Percentage mycelium inhibition [3, 9]: 46.47% | Percentage mycelium inhibition [3, 10]: 92.75% | Percentage mycelium inhibition [3, 11]: 98.62% | Percentage mycelium inhibition [3, 12]: 100.00% | Percentage mycelium inhibition [3, 13]: 100.00% | Percentage mycelium inhibition [4, 9]: 23.14% | Percentage mycelium inhibition [4, 10]: 48.04% | Percentage mycelium inhibition [4, 11]: 66.08% | Percentage mycelium inhibition [4, 12]: 88.43% | Percentage mycelium inhibition [4, 13]: 100.00% | Percentage mycelium inhibition [5, 9]: 64.91% | Percentage mycelium inhibition [5, 10]: 93.57% | Percentage mycelium inhibition [5, 11]: 95.32% | Percentage mycelium inhibition [5, 12]: 96.49% | Percentage mycelium inhibition [5, 13]: 100.00% | Percentage mycelium inhibition [6, 9]: 33.33% | Percentage mycelium inhibition [6, 10]: 69.61% | Percentage mycelium inhibition [6, 11]: 86.67% | Percentage mycelium inhibition [6, 12]: 90.59% | Percentage mycelium inhibition [6, 13]: 100.00% | Percentage mycelium inhibition [7, 9]: 35.65% | Percentage mycelium inhibition [7, 10]: 61.00% | Percentage mycelium inhibition [7, 11]: 77.27% | Percentage mycelium inhibition [7, 12]: 88.28% | Percentage mycelium inhibition [7, 13]: 100.00% | Percentage mycelium inhibition [8, 9]: 21.18% | Percentage mycelium inhibition [8, 10]: 65.88% | Percentage mycelium inhibition [8, 11]: 91.37% | Percentage mycelium inhibition [8, 12]: 100.00% | Percentage mycelium inhibition [8, 13]: 100.00%

CO/N=C(/C(=O)OC)c1ccccc1COc1ccccc1C [kresoxim-methyl]
inhibition of the growth of Phaeomoniella chlamydospora [1]: strong to very strong
